Assay results: patent US12629359B2 (UNIVERSITA' DEGLI STUDI DI BRESCIA, priority 2020, dated 2026)
“Also recorded” adds a separate entry of the source.

Key:
[1] = test system: alpha-synuclein aggregation in SK—N—SH cells; assay: Alpha-synuclein aggregation after glucose deprivation in SK-N-SH alpha-synuclein stable clones (immunocytochemistry); format: cell-based, human
Experimental: Human neuroblastoma SK—N—SH full length (fl) alpha-synuclein stable clones were seeded onto poly-D-lysine-coated glass coverslides in 24-well plates and were grown in complete medium comprising Dulbecco's modified Eagle's medium with 1000 mg glucose/l supplemented with 10% heat-inactivated fetal bovine serum, 100 μg/ml penicillin and 100 μg/ml streptomycin. Cells were maintained at 37° C. under a humidified atmosphere of 5% CO2 and […]. At 80% confluence, cells underwent glucose deprivation (GD) in order to induce alpha-synuclein aggregation (Bellucci, A.; et al. Journal of neurochemistry 2008, 106, 560-577). Briefly, GD was performed through an incubation of the cells with Hank's balanced salt solution supplemented with 2 mM glutamine and 10% heat-inactivated fetal bovine serum, for 1 h at 37° C. […] After 24 h of treatment, cells were fixed by incubating for 15 min in 4% paraformaldehyde with 4% sucrose in 1 M PBS, pH 7.4. The fixed cells were then stored in PBS-containing 0.05% sodium azide. Slides were incubated for 1 h at room temperature in blocking solution [2% w/v bovine serum albumin (BSA) plus 3% v/v normal goat serum in PBS], then overnight at 4° C. with the primary antibody (Syn211 antibody against alpha-synuclein) at the optimal working dilution. On the following day, cells were incubated for 1 h at room temperature with the Cy3-conjugated secondary antibody diluted in 0.1% Triton X-100 PBS plus BSA 1 mg/ml. Finally, cell nuclei were counterstained with Hoechst 33258 dye, and the coverslips were mounted onto glass slides using Vectashield.

SYN120 tg mice = assay: Open-field motility after acute i.p. injection in SYN120 tg mice; format: in vivo, mouse; details: acute i.p. 10 mg/kg, 12 month-old SYN120 tg mice
Excerpt: We investigated the ability of compound I-threo to stimulate the motility of Parkinson's disease mice more efficiently that MPH. […] All experiments were made in accordance with Directive 2010/63/EU of the European Parliament and of the Council of 22 Sep. 2010 on the protection of animals used. All experimental procedures conformed to the National Research Guide for the Care and Use of Laboratory Animals and were approved by the Animal Research Committees of the University of Brescia (Protocol Permit 719/2015-PR). Three different groups of 12 month-old SYN120 tg mice (N=3 animals per group) were used for the motility assay by using the open-field behavioural paradigm. The motility of the animals in the open-field arena was registered and analysed by using the Any-Maze system. […] The total distance travelled by the mice during 2.5 minutes intervals was plotted on graphs.

COC(=O)[C@@H](c1ccc(C)cc1)C1CCCCN1.Cl (stereo partly drawn) [I-threo, threo methyl 2-(piperidin-2-yl)-2-(p-tolyl)acetate hydrochloride]
alpha-synuclein aggregates seen in images after GD ([1]; 10 μM, 24 h, vs non-treated (NT) cells, preliminary): no aggregates were observed
formation of alpha-synuclein inclusions after GD (immunofluorescence intensity and average particle size) ([1]; 10 μM, 24 h after 1 h glucose deprivation, vs untreated, hydrochloride): significantly reduce the formation of alpha-synuclein inclusions; also recorded: significantly reduce alpha-synuclein aggregation in vitro
EC50 ([1]; Homo sapiens, SK-N-SH cells, read-out: EC50 in reducing alpha-synuclein aggregation): 431 nM
efficacy (% effect) in reducing alpha-synuclein aggregation, compared with MPH ([1]; SK-N-SH cells): almost comparable
EC50 fold lower than that of MPH ([1]; SK-N-SH cells, I-threo vs MPH): 200 fold
motility (total distance travelled) in open field arena (SYN120 tg mice): improve the motility of SYN120 tg mice more efficiently than MPH
